Measured values from patent US20260294852A1, “COSMETIC COMPOSITION FOR PREVENTING, ALLEVIATING OR AMELIORATING ALOPECIA” (LG CHEM, LTD., priority 2023, published 2026).

Legend:
[1] = tested on: human hair follicles; assay: Evaluation of the ratio of hair follicle telogen in DHT-treated anagen hair follicle tissue (ex vivo culture); format: cell-based; conditions: for Telogen ratio: 6 days vs day 0
Procedure: (§1) The ratio of hair follicle telogen and the expression level of hair follicle cell proliferation-related factor proteins depending on whether 3-hydroxypropionic acid was applied or not were evaluated according to the following methods.
The human hair follicles or scalp tissues provided for research purposes (IRB No. 4-2023-1052; Institutional Review Board, Severance Medical Center, Yonsei University College of Medicine) were washed several times with PBS to remove residual impurities, and randomly divided into each group. The hair follicles and scalp tissues were cultured in Williams' Medium E (Sigma) supplemented with 2 mM L-glutamine (Sigma-Aldrich), 10 μg/ml insulin (Sigma-Aldrich), 100 ng/ml hydrocortisone (Sigma-Aldrich), 0.1% fungizone (Gibco, USA), and 1% antibiotic-antimycotic (Gibco), and 1% penicillin-[…] (Gibco) at 37° C. in 5% CO2.
To induce the telogen in the anagen hair follicle tissue, the test composition was treated with 1 μM dihydrotestosterone (DHT). The medium was replaced every 3 days and cultured for 6 days. The ratio of hair follicle telogen was visually evaluated based on the ratio of hair follicles in which the telogen occurred for 6 days compared to day 0.

[2] = tested on: Human follicle dermal papilla cells; assay: Human follicle dermal papilla cell viability (WST / CCK-8); format: cell-based; conditions: for Human follicle dermal papilla cell viability: 24 hours
Procedure: (§2) Human follicle dermal papilla cells (PromoCell GmbH) were cultured in human follicle dermal papilla cells growth medium (PromoCell GmbH) supplemented with fetal calf serum (FCS), bovine pituitary extract (BPE), basic fibroblast growth factor (bFGF), and insulin at 37° C. and 5% CO2.
The cultured human follicle dermal papilla cells were divided into 5×10^3 cells in a 96-well plate, and when the cells reached 80% or more confluency, they were treated with the 3-hydroxypropionic acid aqueous solution according to Preparation Example 1 at four concentrations ([…]), and then cultured for 24 hours. WST substrate solution (high sensitivity water soluble tetrazolium salt, CCK-8, DOJINDO) was then added to the medium, and cultured at 37° C. for 2 hours.
During the culture, a […] formazan was produced by the reaction between WST and intracellular dehydrogenase, and the absorbance (OD, wavelength 450 nm) was measured.
In Equation 1, the ‘experimental group’ is the group treated with an aqueous solution containing 3HP; the ‘control group’ is the medium containing only the WST substrate; and the ‘negative control group’ is the group in which a medium containing WST substrate was treated with an aqueous solution of 0% 3HP.

[3] = tested on: 5α-reductase gene (Srd5α1); assay: 5α-reductase gene expression level (real-time PCR, GAPDH-normalised) in human follicle dermal papilla cells; format: cell-based; conditions: for mrna remaining at 0.0125 % / mrna remaining at 0.025 % / mrna remaining at 0.05 %: Homo sapiens, 24 h, 24 hours; for mrna remaining at 0.0125 %: 3HP 0.0125 wt. %; for mrna remaining at 0.025 %: 3HP 0.025 wt. %; for mrna remaining at 0.05 %: 3HP 0.05 wt. %
Procedure: as §2
(§3) The cultured human follicle dermal papilla cells were divided into 5×10^4 cells in a 96-well plate, and when the cells reached 80% or more confluency, they were treated with the 3-hydroxypropionic acid aqueous solution according to Preparation Example 1 at four concentrations (3HP concentrations: 0 wt. %, 0.0125 wt. %, 0.025 wt. %, and 0.05 wt. %), and then cultured for 24 hours. Then, the total RNA in the cells was extracted, and cDNA was synthesized from the extracted RNA. The synthesized cDNA was subjected to real-time polymerase chain reaction. And, the relative quantitative analysis of each gene was performed using GAPDH (one of the house-keeping genes). The relative quantification (RQ) value was calculated according to the following Equation 2.
(§4) In the Equation 2, ‘Treatment’ is the group treated with 3HP; ‘Control’ is the group not treated with 3HP; ‘Target gene’ is Srd5α1 and TGF-β1, and ‘House-keeping gene’ is GAPDH.

[4] = tested on: TGF-β1 gene; assay: TGF-β1 gene expression level (real-time PCR, GAPDH-normalised) in human follicle dermal papilla cells; format: cell-based; conditions: for mrna remaining at 0.0125 % / mrna remaining at 0.025 % / mrna remaining at 0.05 %: Homo sapiens, 24 h, 24 hours; for mrna remaining at 0.0125 %: 3HP 0.0125 wt. %; for mrna remaining at 0.025 %: 3HP 0.025 wt. %; for mrna remaining at 0.05 %: 3HP 0.05 wt. %
Procedure: as §2, §3, §4

[5] = tested on: Ki67; assay: Expression of cell proliferation-related factor protein Ki67 (immunofluorescence) in cultured scalp tissue; format: cell-based, human; conditions: 0.1% 3HP, compared to the negative control group
Procedure: as §1
The human hair follicles or scalp tissues provided for research purposes (IRB No. 4-2023-1052; Institutional Review Board, Severance Medical Center, Yonsei University College of Medicine) were washed several times with PBS to remove residual impurities, and randomly divided into each group. […]
After the scalp tissue was treated with the test composition for 24 hours, the obtained tissue was prepared into a frozen block, and frozen sectioned at a thickness of 5 μm using a Cryostat microtome (Leica Biosystems, Germany), and the tissue sections were attached onto Silane-coated slides. […] Finally, the tissues were fixed with a fixative containing blue fluorescent DAPI (VECTASHIELD® mounting medium with DAPI; Vector laboratories) that stains the cell nucleus, and then images were taken at 100× magnification using a fluorescence microscope (M2; Zeiss). The percentage of Ki67-expressing cells among the total cells labeled with DAPI was measured from the captured images, and a higher value means a higher number of Ki67-expressing cells.

[6] = under the treatment concentration

In the case of CC(C)(C)NC(=O)[C@H]1CC[C@H]2[C@@H]3CC[C@H]4NC(=O)C=C[C@]4(C)[C@H]3CC[C@]12C [Finasteride, reference compound], the Telogen ratio ([1]; DHT (1 μM) + 0.5 mM Finasteride, DHT alone 40.000) is reported as 0.000%.
C[C@]12CCC(=O)C[C@@H]1CC[C@@H]1[C@@H]2CC[C@]2(C)[C@@H](O)CC[C@@H]12 [DHT, dihydrotestosterone, reference compound] showed a Telogen ratio ([1]; 1 μM DHT alone (telogen inducer), Control 36.667) of 40.000%.
O=C(O)CCO [3HP, 3-hydroxypropionic acid] was tested, and the “Human follicle dermal papilla cell viability” value ([2]; 3HP 0.025 wt. %, Average, SD 2.561, p-value 0.012 vs negative control (100%)) was 86.684%, the “Human follicle dermal papilla cell viability” value ([2]; 3HP 0.05 wt. %, Average, SD 0.735, p-value 0.001 vs negative control (100%)) was 85.841% and the “Human follicle dermal papilla cell viability” value ([2]; 3HP 0.05 wt. %, single run: Once) was 86.465%. For the same molecule, the “Human follicle dermal papilla cell viability” value ([2]; 3HP 0.1%, Average, SD 2.416, p-value 0.003 vs negative control (100%)) was 75.333%, the “cell viability (in words)” value ([2]; under the above treatment concentrations) was “high” and the “hair follicle telogen ratio (in words)” value ([1]; 0.1%, 0.5%, and 1.0% 3HP, compared to the DHT control group) was “significantly decreased”. For the same molecule, the Telogen ratio ([1]; DHT (1 μM) + 0.5% 3HP, DHT alone 40.000) was 0.000%, the Telogen ratio ([1]; DHT (1 μM) + 1.0% 3HP, DHT alone 40.000) was 0.000% and the mrna remaining at 0.0125 % ([3]; single run: Three times) was 92.7%. It also gave a mrna remaining at 0.0125 % ([3]; single run: Two times) of 81.5%, a mrna remaining at 0.025 % ([3]; single run: Three times) of 91.4% and a mrna remaining at 0.025 % ([3]; single run: Two times) of 88%. It also gave a mrna remaining at 0.05 % ([3]; single run: Once) of 132%, a mrna remaining at 0.05 % ([3]; single run: Three times) of 135% and a mrna remaining at 0.05 % ([3]; single run: Two times) of 113%. For the same molecule, the “expression of the 5α-reductase gene (in words)” value [3, 6] was “significantly inhibited”, the mrna remaining at 0.0125 % ([4]; single run: Three times) was 78.5% and the mrna remaining at 0.0125 % ([4]; single run: Two times) was 86.4%. It also gave a mrna remaining at 0.025 % ([4]; single run: Three times) of 65.5%, a mrna remaining at 0.025 % ([4]; single run: Two times) of 72.3% and a mrna remaining at 0.05 % ([4]; single run: Once) of 131%. The mrna remaining at 0.05 % ([4]; single run: Three times) was 118%, the mrna remaining at 0.05 % ([4]; single run: Two times) was 140% and the “expression of the TGF-β1 gene (in words)” value [4, 6] was “significantly inhibited”. For the same molecule, the “proliferation effect of hair follicle cells (in words)” value [5] was “significantly increased”.
In the case of O=C(O)CCCC[C@@H]1SC[C@@H]2NC(=O)N[C@@H]21 [Biotin, reference compound], the Telogen ratio ([1]; DHT (1 μM) + 2 ng/ml Biotin, DHT alone 40.000) is reported as 10.000%.
